The record followed here is PMC7939385, “Disease-associated mutations in inositol 1,4,5-trisphosphate receptor subunits impair channel function” (The Journal of Biological Chemistry, 2021).

Structures are written as SMILES.

Assay [1] deals with T1, WT rIP3R1 (Rattus norvegicus, UniProt C7E1V2, N602D).
T1 construct: gene Itpr1; homotetramer, ~300 kDa subunit; Methods give NM_001270596, footnote NM_001007235
The assay can be described thus: competitive [3H]IP3 radioligand binding on immunoprecipitated receptor.

The target of a further assay is T2, WT mIP3R2 (Mus musculus, UniProt Q9Z329).
T2 construct: gene Itpr2; homotetramer
Briefly: [3H]IP3 binding on immunoprecipitated receptor. As to conditions: 2.5 nM [3H]IP3 with 50 uM unlabelled IP3 for nonspecific binding; pH 8, 4 °C, 1 h; labelled compound.

Assay [2] has as its target T3, WT rIP3R1 (Rattus norvegicus, UniProt C7E1V2).
T3 construct: gene Itpr1; homotetramer, ~300 kDa subunit; Methods give NM_001270596, footnote NM_001007235
The assay can be described thus: competitive [3H]IP3 radioligand binding on immunoprecipitated receptor. The following applies: read-out: apparent EC50. The source says: competitive [3H]IP3 radioligand binding on immunoprecipitated receptor on WT rIP3R1 | the apparent EC50 for binding was not markedly altered under these conditions

T3 sequence (C7E1V2 1-2748): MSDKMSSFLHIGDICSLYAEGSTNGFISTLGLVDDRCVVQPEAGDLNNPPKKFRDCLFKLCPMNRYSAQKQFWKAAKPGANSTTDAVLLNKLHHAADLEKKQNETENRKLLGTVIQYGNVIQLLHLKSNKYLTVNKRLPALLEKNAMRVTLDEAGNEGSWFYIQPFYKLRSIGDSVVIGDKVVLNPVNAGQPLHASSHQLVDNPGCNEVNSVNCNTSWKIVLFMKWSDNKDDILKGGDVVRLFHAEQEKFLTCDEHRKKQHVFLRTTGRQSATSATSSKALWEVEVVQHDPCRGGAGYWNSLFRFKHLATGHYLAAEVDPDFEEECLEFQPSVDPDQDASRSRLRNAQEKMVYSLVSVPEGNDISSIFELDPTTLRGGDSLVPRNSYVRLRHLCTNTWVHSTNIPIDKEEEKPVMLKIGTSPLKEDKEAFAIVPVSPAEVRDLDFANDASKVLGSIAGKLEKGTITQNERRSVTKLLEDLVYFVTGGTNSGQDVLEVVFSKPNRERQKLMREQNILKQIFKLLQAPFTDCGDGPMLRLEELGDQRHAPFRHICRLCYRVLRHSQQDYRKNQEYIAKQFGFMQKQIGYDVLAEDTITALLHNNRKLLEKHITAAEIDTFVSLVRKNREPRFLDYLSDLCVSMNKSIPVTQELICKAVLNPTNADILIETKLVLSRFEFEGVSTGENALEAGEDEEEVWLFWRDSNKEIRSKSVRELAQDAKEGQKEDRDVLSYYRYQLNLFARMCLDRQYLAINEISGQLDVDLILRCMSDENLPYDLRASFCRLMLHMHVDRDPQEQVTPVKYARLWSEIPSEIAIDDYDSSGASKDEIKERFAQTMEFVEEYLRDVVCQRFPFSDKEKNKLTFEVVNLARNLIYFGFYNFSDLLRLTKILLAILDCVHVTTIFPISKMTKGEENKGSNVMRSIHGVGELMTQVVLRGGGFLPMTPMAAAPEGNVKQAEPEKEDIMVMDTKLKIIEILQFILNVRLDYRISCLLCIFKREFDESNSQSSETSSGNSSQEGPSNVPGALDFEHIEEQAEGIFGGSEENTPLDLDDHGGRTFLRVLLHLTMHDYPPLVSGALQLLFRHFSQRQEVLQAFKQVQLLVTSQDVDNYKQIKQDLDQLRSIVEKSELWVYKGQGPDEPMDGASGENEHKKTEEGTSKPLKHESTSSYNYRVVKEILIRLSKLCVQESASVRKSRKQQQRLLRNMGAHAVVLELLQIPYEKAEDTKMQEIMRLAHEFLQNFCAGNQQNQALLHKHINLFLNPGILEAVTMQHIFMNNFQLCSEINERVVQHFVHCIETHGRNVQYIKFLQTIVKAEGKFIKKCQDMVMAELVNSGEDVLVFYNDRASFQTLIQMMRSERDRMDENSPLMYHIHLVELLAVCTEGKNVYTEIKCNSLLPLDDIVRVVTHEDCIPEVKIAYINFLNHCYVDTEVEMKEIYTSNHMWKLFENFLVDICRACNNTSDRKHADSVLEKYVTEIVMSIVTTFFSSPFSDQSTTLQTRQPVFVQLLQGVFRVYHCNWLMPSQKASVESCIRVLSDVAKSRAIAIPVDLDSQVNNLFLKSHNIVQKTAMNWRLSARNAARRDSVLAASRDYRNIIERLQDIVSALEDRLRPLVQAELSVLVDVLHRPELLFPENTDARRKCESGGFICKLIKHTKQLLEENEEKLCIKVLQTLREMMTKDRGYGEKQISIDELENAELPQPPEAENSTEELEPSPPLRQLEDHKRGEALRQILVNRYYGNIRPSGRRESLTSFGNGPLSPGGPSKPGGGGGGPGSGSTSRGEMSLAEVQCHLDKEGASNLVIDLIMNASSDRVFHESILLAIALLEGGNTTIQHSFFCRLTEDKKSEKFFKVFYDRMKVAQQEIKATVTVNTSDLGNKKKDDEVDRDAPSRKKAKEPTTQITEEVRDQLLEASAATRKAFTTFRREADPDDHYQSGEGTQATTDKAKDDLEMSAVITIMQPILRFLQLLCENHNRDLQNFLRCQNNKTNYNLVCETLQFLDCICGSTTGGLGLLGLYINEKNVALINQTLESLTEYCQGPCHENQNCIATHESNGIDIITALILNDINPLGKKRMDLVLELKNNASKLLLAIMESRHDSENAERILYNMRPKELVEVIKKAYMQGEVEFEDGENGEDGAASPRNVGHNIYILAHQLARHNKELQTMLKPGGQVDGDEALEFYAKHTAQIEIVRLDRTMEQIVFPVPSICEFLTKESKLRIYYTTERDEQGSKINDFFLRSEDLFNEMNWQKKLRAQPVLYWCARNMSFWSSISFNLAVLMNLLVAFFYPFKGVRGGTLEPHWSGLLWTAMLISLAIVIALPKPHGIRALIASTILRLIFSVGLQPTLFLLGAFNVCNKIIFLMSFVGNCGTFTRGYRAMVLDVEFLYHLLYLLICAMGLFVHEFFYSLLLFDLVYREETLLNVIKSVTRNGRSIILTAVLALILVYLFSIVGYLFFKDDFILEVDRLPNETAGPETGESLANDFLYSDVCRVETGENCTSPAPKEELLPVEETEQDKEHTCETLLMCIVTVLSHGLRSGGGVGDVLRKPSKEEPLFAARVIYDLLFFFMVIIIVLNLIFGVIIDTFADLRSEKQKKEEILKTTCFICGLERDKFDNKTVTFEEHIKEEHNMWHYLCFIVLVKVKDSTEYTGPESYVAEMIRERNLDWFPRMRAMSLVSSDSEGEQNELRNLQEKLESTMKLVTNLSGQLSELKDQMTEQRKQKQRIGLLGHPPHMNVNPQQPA

As usually defined, the EC50 is the concentration at which the effect is half-maximal. For `O=P(O)(O)O[C@@H]1[C@H](O)[C@H](O)[C@@H](OP(=O)(O)O)[C@H](OP(=O)(O)O)[C@H]1O` [IP3], the EC50 worked out at 70.2 ± 1.6 nM at WT rIP3R1 [1] and 45.7 ± 5.3 nM on WT rIP3R1 [2]. Moreover, the “[3H]IP3 binding on immunoprecipitated receptor” value on WT mIP3R2 is listed as “IP3 binding to mIP3R2^GS was comparable with WT mIP3R2”.
